The target of one test is T1, human recombinant Yes [a.a. 2–543 (end)] (Homo sapiens, UniProt P07947).
T1 construct: human recombinant Yes [a.a; 2–543 (end)]; purchased BPS Bioscience 40488
T1 sequence (P07947 2-543): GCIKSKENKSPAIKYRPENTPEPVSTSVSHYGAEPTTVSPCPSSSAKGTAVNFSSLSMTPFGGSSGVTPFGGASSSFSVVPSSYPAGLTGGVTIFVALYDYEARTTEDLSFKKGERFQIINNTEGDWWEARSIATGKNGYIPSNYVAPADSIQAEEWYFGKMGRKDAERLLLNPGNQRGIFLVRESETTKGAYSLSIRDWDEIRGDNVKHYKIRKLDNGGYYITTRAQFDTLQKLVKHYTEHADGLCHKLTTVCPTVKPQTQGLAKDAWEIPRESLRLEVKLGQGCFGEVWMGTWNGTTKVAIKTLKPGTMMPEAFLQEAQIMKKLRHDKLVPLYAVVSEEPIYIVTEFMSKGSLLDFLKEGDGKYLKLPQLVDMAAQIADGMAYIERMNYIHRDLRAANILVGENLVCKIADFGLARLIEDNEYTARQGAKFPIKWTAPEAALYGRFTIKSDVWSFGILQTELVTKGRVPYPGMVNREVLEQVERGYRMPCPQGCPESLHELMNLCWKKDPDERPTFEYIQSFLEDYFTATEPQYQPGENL
The test is described as follows: ADP-Glo kinase assay, inhibition rates of Yes phosphorylation activity (first and second screening). The settings on record: first screening; mean of n = 4 wells; 10 μmol L−1 compound. In kind it is biochemical. Put shortly:
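Hits from a first pass were rescreened after re-dissolution from fresh powder. The first pass reported the mean inhibition rate of quadruplicate wells per compound. Activity was that of recombinant human Yes [a.a. 2–543] kinase, read out with the ADP-Glo ADP-detection method.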
Consider `CCCN(Cc1cccnc1OC)C1CCN(C(=O)c2ccccc2)CC1` [Compound Z1415907924], for which the “First screening IR (inhibition rate)” value is recorded as 6%.
The same measure, in the same setting: as for `Cc1nc(-c2ccc(C(=O)OCCCn3cccn3)cc2)n[nH]1` [Compound Z1417129003], the figure is 10%.
The same measure, in the same setting: next, `CNc1snc(C)c1C(=O)N1CCC(Oc2ccc(Cl)c(Cl)c2)C1` (centres unmarked) [Compound Z1417711005]: -7%; `CN(C)c1ccc(-c2cncc(C(=O)NCC3CC=CCC3)c2)cc1` (centres unmarked) [Compound Z1418841673]: 21%; `CC(Sc1ncc(CO)n1C)c1cn(-c2ccccc2)nn1` (centres unmarked) [Compound Z1419493384]: -8%.
The same measure, in the same setting: as for `COC(=O)Cn1ncc2c(N3CCCCC3CCC(C)C)ncnc21` (centres unmarked) [Compound Z1419966801], the figure is 1%.
As for `CCc1ccc(CNc2cccc(NC(=O)OCCOC)c2)o1` [Compound Z1420504830], the “First screening IR (inhibition rate)” value was -7%.
`CCn1nc(NCc2cn[nH]c2-c2ccc(C)o2)cc1C1CC1` [Compound Z1421828757]: the “First screening IR (inhibition rate)” value worked out at 13%.
The same measure, in the same setting: next, `O=C(Nc1cc(-c2cccc(F)c2F)[nH]n1)c1ccc2nncn2c1` [Compound Z1423687928]: 11%.
For `c1ccc(-c2cn(Cc3nc(-c4cccs4)no3)nn2)cc1` [Compound Z1425793872], the “First screening IR (inhibition rate)” value is reported as 13%.
Take `Cc1ccc(CNC(C)(CO)c2cccc(C(F)(F)F)c2)nc1` (centres unmarked) [Compound Z1426135114]: the “First screening IR (inhibition rate)” value is listed as 10%.
For `O=C(Nc1n[nH]c(-c2ccoc2)n1)c1cc(-c2ccc(F)cc2)on1` [Compound Z1426521974], the “First screening IR (inhibition rate)” value turned out to be 4%.
For `Cc1cc(NCc2cn3cccnc3n2)c(C(N)=O)cc1F` [Compound Z1430011273], the “First screening IR (inhibition rate)” value is listed as 12%.
On the same count and under the same terms, as for `Cc1cnn(-c2cccc(N3CCOC(c4ccc(F)cc4)C3)n2)c1` (centres unmarked) [Compound Z1430532131], the figure is 0%.
Turning to `CC(C)c1nncn1CCNC(=O)C(c1cc(Cl)cc(Cl)c1)N(C)C` (centres unmarked) [Compound Z1430823330], the “First screening IR (inhibition rate)” value is listed as 5%.
The same measure, in the same setting: next, `O=C(c1cc(C2CC2)[nH]n1)N1CCC(=Cc2cc(Cl)ccc2Cl)CC1` [Compound Z1432870591]: 2%; `Cn1nc(C2CCC2)cc1NC(=O)c1cc(Br)cnc1Cl` [Compound Z1433129748]: 0%.
On to `Clc1ccc(C2=NN/C(=N/c3ccccn3)SC2)s1` [Compound Z1446648080], for which the “First screening IR (inhibition rate)” value worked out at 8%.
Take `NC(=O)c1cc(NC(=O)c2cccnc2Nc2cccc(F)c2)n[nH]1` [Compound Z1451063255]: the “First screening IR (inhibition rate)” value stood at 2%.
Take `CNC1CCN(C(=O)c2ccc3c(c2)ncn3C(C)C)C1.Cl.Cl` (centres unmarked) [Compound Z1455845707]: the “First screening IR (inhibition rate)” value amounted to 13%.
As to `Cl.O=C(NCCC1CCCNC1)c1c(F)cccc1Br` (centres unmarked) [Compound Z1457134316], the “First screening IR (inhibition rate)” value was -2%.
As to `CN1CCN(C(=O)c2ccc(-c3cc(F)c(F)c(F)c3)cc2)C(CN)C1.Cl` (centres unmarked) [Compound Z1457890473], the “First screening IR (inhibition rate)” value worked out at 13%.
Regarding `Cc1ccn2c(CNc3cc(C(N)=O)cc(F)c3C)cnc2c1` [Compound Z1462541066], the “First screening IR (inhibition rate)” value came out at 33%.
In the case of `Fc1cc(NCc2cn[nH]c2-c2cccnc2)ccc1-n1ccnc1` [Compound Z1462562385], the “First screening IR (inhibition rate)” value turned out to be 10%.
`CN(C)C(=O)Cc1ccccc1NCc1ccc(-n2ccnc2)cc1` [Compound Z1462566317]: the “First screening IR (inhibition rate)” value was 13%.
On to `O=C(OCCc1cn[nH]c1)c1ncoc1-c1ccco1` [Compound Z1463415737], for which the “First screening IR (inhibition rate)” value turned out to be 57%.
With `Cc1nc(C2CCCN(C(=O)c3cncc(-c4ccc5c(c4)CCO5)c3)C2)n[nH]1` (centres unmarked) [Compound Z1464424071], the “First screening IR (inhibition rate)” value is given as -4%.
As for `COC(=O)c1cnc(N2CCCCC2)cc1N1CCCCC1` [Compound Z1465442209], the “First screening IR (inhibition rate)” value came out at 0%.
Regarding `N#CCCN(CCN1CCOCC1)Cc1cn[nH]c1-c1c(F)cccc1F` [Compound Z1470747510], the “First screening IR (inhibition rate)” value is reported as -6%.
The same measure, in the same setting: as for `CCN(C(=O)c1ccc2c(c1)CC(c1ccccc1)OC2=O)c1ncc[nH]1` (centres unmarked) [Compound Z1474089033], the figure is -8%.
For the compound `COc1ccc2[nH]c(C)c(C(=O)NCC(C)(C)c3cccc(F)c3)c2c1` [Compound Z1482480186], the “First screening IR (inhibition rate)” value was 70%.
Take `CC1CCN(Cc2ncc(-c3cccc(Cl)c3)o2)CC1n1ccnc1` (centres unmarked) [Compound Z1492998619]: the “First screening IR (inhibition rate)” value is listed as 33%.
Still for that read-out and setting: as for `CC1c2cc(Cl)cc(Cl)c2CCN1C(=O)c1cnc2n1CCCC2` (centres unmarked) [Compound Z1494913871], the figure is 13%.
Turning to `CC1CCN(C(=O)c2nc3ncc(Br)cn3n2)CC(C)C1` (centres unmarked) [Compound Z1500127626], the “First screening IR (inhibition rate)” value is listed as 1%.
As for `CN(C)C(C)(C)CNC(=O)Cc1c[nH]c2cccc(Br)c12` [Compound Z1509620411], the “First screening IR (inhibition rate)” value is recorded as -4%.
Still for that read-out and setting: as for `CC(C)c1cc(C(=O)N(C)C2CCCCC2N(C)C(=O)c2cc(C(C)C)[nH]n2)n[nH]1` (centres unmarked) [Compound Z1511609753], the figure is 5%; as for `Cc1nccn1-c1cncc(NCCOCCS(C)(=O)=O)n1` [Compound Z1513517715], 17%; as for `Cc1cnc(COC(=O)c2cc(-c3ccccn3)ccc2Cl)cn1` [Compound Z1514764424], -4%.
Same read-out and setting: as for `CC(=O)c1cccc(COC(=O)c2n[nH]c3c2CCCC3)c1` [Compound Z1515387931], the figure is -3%; as for `NS(=O)(=O)C1CC=CCC1` (centres unmarked) [Compound Z1517090453], 1%; as for `Cc1c(/C=C2/C(=O)Nc3ccc(F)cc32)cnn1C` [Compound Z1517268554], 31%.
Still for that read-out and setting: as for `COC(=O)Cn1ncc2c(N3CCCC34CCCCC4)ncnc21` [Compound Z1527076116], the figure is -3%; as for `Cn1nc(Br)c2c(N3CCCC34CCCCC4)ncnc21` [Compound Z1527076521], 38%; as for `CC(NCc1ccc(CN2CCN(C)CC2)cc1)c1cccc(CO)c1` (centres unmarked) [Compound Z1532484795], -4%.
For `CCn1ncc2c(C(=O)NCC(C)(O)C(F)(F)F)cc(-c3cccs3)nc21` (centres unmarked) [Compound Z1535762010], the “First screening IR (inhibition rate)” value is reported as -4%.
On the same count and under the same terms, next, `Cc1nccn1-c1ccc(C(C)Nc2ncnc3nc(N)ccc23)cc1` (centres unmarked) [Compound Z1537172697]: 53%.
On the same count and under the same terms, next, `Cc1cccc(NC2CCN(C(=O)c3c[nH]c4cccc(F)c34)CC2)n1` [Compound Z1538193381]: 3%; `O=S1(=O)CCC(CNS(=O)(=O)c2c[nH]c3nccc(Cl)c23)C1` (centres unmarked) [Compound Z1547285504]: -14%.
Take `CCc1cc(N2CCC(NCc3c(Cl)cccc3N3CCCC3)CC2)ncn1` [Compound Z1549038619]: the “First screening IR (inhibition rate)” value was 0%.
On the same count and under the same terms, next, `Cc1ccc(S(=O)(=O)C2CS(=O)(=O)CC2O)c(C)c1` (centres unmarked) [Compound Z1549639934]: -1%.
Still for that read-out and setting: as for `CC(C)c1cc(NS(=O)(=O)c2cc(F)c(Br)cc2F)n[nH]1` [Compound Z1551172092], the figure is 5%; as for `O=C1NCc2cccc(NS(=O)(=O)c3c(Cl)ccnc3Cl)c21` [Compound Z1556993367], -3%.
Same read-out and setting: as for `Cc1cc(N2CCN(C(=O)Nc3cc(C)c4cn[nH]c4c3)CC2)nc(C)n1` [Compound Z1557589830], the figure is 42%; as for `Cc1nc(CN)ccc1C(=O)Nc1ccc(Oc2ccc(Cl)cc2Cl)c(F)c1.Cl` [Compound Z1561183584], -5%; as for `CC(C)(C)Oc1cccc(CN2CCC(c3c[nH]c4ncccc34)CC2)n1` [Compound Z1564730073], 12%.
Take `CC1CN(C(=O)C2CCS(=O)(=O)C2)c2cc(F)ccc2CN1C(=O)OC(C)(C)C` (centres unmarked) [Compound Z1566941984]: the “First screening IR (inhibition rate)” value was -8%.
On to `CN(C)c1nccc(N2CCN(Cc3ccc(Cl)o3)CC2)n1` [Compound Z1569249080], for which the “First screening IR (inhibition rate)” value was 27%.
Consider `Cn1c(=O)c2ccc(C(=O)NCc3cc(Cl)ccn3)nc2n(C)c1=O` [Compound Z1574547064], for which the “First screening IR (inhibition rate)” value was -2%.
Take `CC(C)(C)c1ccc(NC(=O)/C=C/c2cncc(O)c2)cc1` [Compound Z1574815119]: the “First screening IR (inhibition rate)” value was 6%.
With `Cc1ccc([N+](=O)[O-])c(N2CCC(NCCO)CC2)c1` [Compound Z1576995201], the “First screening IR (inhibition rate)” value is -9%.
On to `Cc1nccn1-c1cncc(N2CCC3(CCCC3)CC2)n1` [Compound Z1578863056], for which the “First screening IR (inhibition rate)” value was found to be 34%.
Take `CC1CN(C(=O)OC(C)(C)C)C(C)CN1C(=O)Cc1csc(N2CCNC2=O)n1` (centres unmarked) [Compound Z1579018538]: the “First screening IR (inhibition rate)” value is on record as 2%.
With `CC(NCc1ccnc(OC2CCOC2)c1)c1cccc(F)c1` (centres unmarked) [Compound Z1583197068], the “First screening IR (inhibition rate)” value is reported as 21%.
With `CCCn1nccc1NC(=O)CN(C)C(C)c1cccc(-c2ccncc2)c1` (centres unmarked) [Compound Z1587266149], the “First screening IR (inhibition rate)” value worked out at 17%.
Same read-out and setting: next, `Cc1n[nH]c(C)c1C1CCCCCN1C(=O)Nc1cnc(N(C)C)nc1` (centres unmarked) [Compound Z1590996465]: -1%.

The same test, now with this note: second screening, dissolved from fresh powder; n = 4; 10 μmol L−1 compound.
Consider `Cc1ccn2c(CNc3cc(C(N)=O)cc(F)c3C)cnc2c1` [Compound Z1462541066], for which the “Second screening IR (inhibition rate)” value was -26%.
For the compound `Cc1c(/C=C2/C(=O)Nc3ccc(F)cc32)cnn1C` [Compound Z1517268554], the “Second screening IR (inhibition rate)” value turned out to be 16%.
`Cc1nccn1-c1cncc(N2CCC3(CCCC3)CC2)n1` [Compound Z1578863056]: the “Second screening IR (inhibition rate)” value is recorded as 0%.

For the origin of these results see paper PMC5607274, “An iterative compound screening contest method for identifying target protein inhibitors using the tyrosine-protein kinase Yes” (Scientific Reports, 2017).
